Data from patent US7435721B2, “Transport peptides such as C-terminal Erns peptide and analogues thereof” (Pepscan Systems B.V., priority 2000, dated 2008).
*: point of attachment. Biotin = O=C1N[C@H]2[C@H](CS[C@H]2CCCCC(=O)*)N1

Each substance was assayed on live cells in suspension or subconfluent monolayers.
Assay type: cell-based

With “Biotin-GNGKLIKGRTPIKFGKADCDRPPKHSQNGM-NH2” the “Concentration (translocation activity), mapping of restrictocin L3 loop” value was 3.0 µM.

Point of comparison: Biotin-GRQLRIAGKRLRGRSK-NH2 [MDR-25], “Concentration (translocation activity), optimization of E^rns peptide” value 0.3 µM. Against it:
- Biotin-GRQLRIAGRRLRRRSR-NH2 [MDM-26] — 3-fold lower, 0.1 µM
- Biotin-GRQLRRAGRRLRGRSR-NH2 [MDM-25] — 3-fold lower, 0.1 µM
- Biotin-GRQLRRAGRRLRRRSR-NH2 [MDM-27] — 3-fold lower, 0.1 µM
